# Values quoted from earlier work in patent US20040132663A1 (University of Utah Research Foundation, priority 2000, published 2004).
# Conditions: in vivo
substance,measurement,value
contulakin-G,potency in inhibiting pain relative to neurotensin,significantly more potent than neurotensin
